Laboratory results as given in patent publication US8796241B2, “Therapy of tumors and infectious agents deficient in methylthioadenosine phosphorylase” (priority 2007, dated 2014).

What was measured:
[1] = tested on: MTAP(+) HF cells; experiment: Coculture of HF and A549-ouaR cells, clonogenic assay; type: cell-based, human; details: addition of 5′-dAdo to DAP
Protocol: (§1) Cell viability of adherent cell types was measured by clonogenic assay as follows: after releasing cells with trypsin and removing a portion of the cell suspension for Coulter counting, the remainder of the cell suspension was plated in serial dilutions in growth medium, without drugs. After a period sufficient for clones to reach a size visible by eye (usually 2 to 3 weeks), clones were stained with crystal violet in a saline/methanol solution. Dishes that had fewer than 100 clones were deemed suitable for counting. From these counts and from the dilution factors, the approximate number of viable cells, in the parent treatment dishes, was calculated. […] In clonogenic assays, clone size was often variable, especially after treatment with toxic drugs. Moreover, many of the very small clones may have arisen from cells detached during the weeks of incubation. […] Cloning efficiency for healthy, growing A549 cells was about 50%; for HF cells, efficiency was quite variable, ranging from 25 to 75% (perhaps because the HF cell stock varied, from experiment to experiment, in passage number).
HF and A549-ouaR (a ouabain-resistant derivative of the human lung carcinoma cell line A549, isolated by Applicants) cells were cultured together in a medium containing DAP, and with or without 5′-dAdo. After 3 days, cultures were trypsinized and serially diluted into fresh medium for clonogenic assays. Some dishes were treated with 0.1 μM ouabain to kill HF cells and permit easy visualization of surviving A549-ouaR clones. Initial viable cells: HF cells, 11,000; A549-ouaR cells, 40,000.

[2] = tested on: MTAP(+) HF cells; experiment: Clonogenic assay of HF cells; type: cell-based, human; details: 30 μM 5′-dAdo, 2 μM F-Ade, 3 days
Protocol: as §1
• B. F-Ade was added to cultures of MTAP(+) HF cells, with or without 5′-dAdo, for 3 days. Cultures were then trypsinized and serially diluted for clonogenic assay. • Initial number of viable cells per dish: 45,000 • Viable cells after 3 days shown below:
• HF cells were plated, and after they had adhered to the substrate, medium was changed to methionine-free medium, with 10% dialyzed serum. • Initial Coulter count: 73,000*; viable cells: 88,000 • After 3 days in methionine-free medium, with or without L-ethionine (Eth) or MTA: […]

[3] = tested on: MTAP(+) HT29 colon carcinoma cells; experiment: Coulter counts of HT29 cultures; type: cell-based, human; details: Example 12
Protocol: (§2) For adherent cell types, cell numbers were determined periodically by releasing cells with trypsin (dead cells that were no longer adherent were removed by two prior rinses of the culture dish) and placing a portion of the resulting cell suspension in a Coulter counter. For cell types that grow in suspension, portions of the culture were counted directly, without trypsin treatment. Coulter counts of cells from each dish were done twice, and almost all experiments were done in duplicate. In the presentation of results, raw data for Coulter counts is given in some cases, while in others, counts have been rounded off to two to three significant figures. (Background Coulter counts—i.e., counts of diluent alone—were insignificant.)
• 5′-dAdo was added to cultures of MTAP(+) HT29 colon carcinoma cells for one day. 5-fluorouracil (FU) was then added and 4 days later cultures were trypsinized, thoroughly dispersed into mostly single cells by vigorous pipetting, and counted. • Initial Coulter count at time of addition of FU: 46,000

[4] = tested on: MTAP(−) HL-60 cells; experiment: Coulter counts of HL-60 suspension cultures; type: cell-based; details: Example 13
Protocol: For cell types that grow in suspension (e.g., ML-1, HL-60, K-562) medium was RPMI-1640 with 10% FBS (undialyzed).
as §2
For cells that grow in suspension, the effect of treatments was assessed solely by changes in Coulter count.
• HL-60 cells were grown in RPMI 1640 with 10% FBS. 5′-dAdo, adenine, or neither were added, and after 3 hours, 5-fluorouracil (FU) was added to selected dishes. Six days later, cell numbers were assessed in a Coulter counter. • Initial cell number/ml: 8,160

[5] = tested on: MTAP-positive cells and cells lines; experiment: Applicants' tissue culture experiments on protection of MTAP-positive cells (summary statements); type: cell-based, human; mouse
[6] = tested on: MTAP-negative cell lines; experiment: Applicants' tissue culture experiments on MTAP-negative cell lines (summary statements); type: cell-based, human; mouse; details: L1210, HL-60, K-562, MCF7, MDA-MB-231, A549, PANC-1
[7] = tested on: mice; details: high doses; cited from earlier work

Compound: C[C@H]1O[C@@H](n2cnc3c(N)ncnc32)[C@H](O)[C@@H]1O [5′-dAdo, 5′-deoxyadenosine]
- protection of HF cells from DAP in coculture [1]: protected
- blocking of F-Ade toxicity in HF cells [2]: effectively blocks
- blocking of FU toxicity in MTAP(+) HT29 cells [3]: blocked
- protection of HL-60 cells from FU toxicity [4]: not protected
- protection from highly toxic doses of adenine and/or methionine competitive antagonists ([5]; HF, mouse hematopoietic progenitors, HT-29, ML-1, EJ, T-47D, ZR-75-1, MDA-MB-468): provide protection
- blocking of toxicity of very high doses of 2,6-diaminopurine, 2-fluoroadenine, 6-methylpurine ([5]; normal human and mouse cells): effectively blocked
- protection against the toxicity of adenine and/or methionine antagonists [6]: inability
- toxicity in vivo [7]: non-toxic
